{
  "source": "patent US4612318A",
  "about": "“CNS-depressant and analgesic tricyclo-[pyrazolo-[3,4-6]-pyridine] derivatives and pharmaceutical compositions thereof” (Gruppo Lepetit S.p.A., priority 1982, dated 1986)",
  "key": {"[1]": {"system": "writhing in mice intraperitoneally administered with p-phenylquinone", "assay": "\"writhing test\" (p-phenylquinone) for analgesia", "type": "in vivo", "description": "(§1) Hendershot and J. Forsaith, in J. Pharm. Exp. Therap. […] Int. Pharmacodyn. […] In the former the disappearance or the reduction of writhing in mice, intraperitoneally administered, with p-phenylquinone--a substance known to produce pain especially in the place of injection--is evaluated; the latter test is used to evaluate the ratio of relief from the pain due to compression of oedema paws in rats orally administered with the test compound."}, "[2]": {"system": "pain due to compression of oedema paws in rats", "assay": "\"pain relief test\" (compression of oedema paws) for analgesia", "type": "in vivo", "description": "as §1"}, "[3]": {"system": "secondary conditioned response (CR2), primary conditioned response (CR) and unconditioned response (UR) of rats", "assay": "\"pole climbing avoidance test\" (anti-anxiety activity)", "type": "in vivo", "conditions": "i.p., about 3 to about 60 mg/kg, groups of ten rats", "source_text": "The anti-anxiety activity of the compounds of the invention was investigated by means of the \"pole climbing avoidance test\", performed essentially as described by G. Maffii, in Journ. Pharm. Pharmacol., 11 129, (1959). A conditioned animal, generally rat, is deconditioned, i.e. is brought to its normal pyschic behaviour, by administration of a suitable amount of the compound to be tested. According to the authors, an inhibition of the secondary conditioned response (CR2) without a contemporary or coupled with a not significant inhibition of the primary conditioned response (CR) and the unconditioned response (UR) is a clear indication of an anti-anxiety effect since these last two parameters are connected with sedative and hypnotic properties."}, "[4]": {"system": "writhing in mice; pain due to compression of oedema paws in rats", "assay": "analgesic activity in both tests (writhing test in mice and pain relief test in rats)", "type": "in vivo", "source_text": "The analgesic activity of the compounds of the present invention was ascertained by means of two known tests for analgesia: the \"writhing test\" in mice, described by L.C. Hendershot and J. Forsaith, in J. Pharm. Exp. Therap. 125, 237, (1959), and the \"pain relief test\" in rats described by L. O. Randall and J. J. Selitto, in Arch. Int. Pharmacodyn. 111, 409, (1957). In the former the disappearance or the reduction of writhing in mice, intraperitoneally administered, with p-phenylquinone--a substance known to produce pain especially in the place of injection--is evaluated; the latter test is used to evaluate the ratio of relief from the pain due to compression of oedema paws in rats orally administered with the test compound."}, "[5]": {"assay": "acute toxicity (LD50) in rats", "conditions": "rat, in vivo, po; orally administered rats"}, "[6]": {"assay": "acute toxicity (LD50) in mice", "conditions": "mouse, in vivo, po; orally administered mice"}},
  "data": [
    {"smiles": "CC(=O)Oc1ccccc1C(=O)O", "note": "[ASA, acetylsalicylic acid, reference compound]", "values": [
      {"measurement": "percent of inhibition of writhings", "setting": "[1]; 20 mg/kg per os", "result": 10, "unit": "%"},
      {"measurement": "percent of inhibition of writhings", "setting": "[1]; 50 mg/kg per os", "result": 57, "unit": "%"},
      {"measurement": "percent of inhibition of writhings", "setting": "[1]; 100 mg/kg per os", "result": 86, "unit": "%"},
      {"measurement": "percent of increase of the pain threshold", "setting": "[2]; 50 mg/kg per os", "result": 39, "unit": "%"},
      {"measurement": "percent of increase of the pain threshold", "setting": "[2]; 100 mg/kg per os", "result": 84, "unit": "%"},
      {"measurement": "percent of increase of the pain threshold", "setting": "[2]; 300 mg/kg per os", "result": 109, "unit": "%"}
    ]},
    {"smiles": "Cc1nn(C)c(N)c1C1=CCN(C)CC1", "note": "[Example 1, 4-(1,2,5,6-tetrahydro-1-methyl-4-pyridinyl)-1,3-dimethyl 5-(1H)-pyrazolamine]", "values": [
      {"measurement": "influence on the CR and the UR (in words)", "setting": "[3]", "result": "no practical influence"}
    ]},
    {"smiles": "CCC(=O)N1CC=C(c2c(C)nn(C)c2N)CC1", "note": "[Example 8]", "values": [
      {"measurement": "influence on the CR and the UR (in words)", "setting": "[3]", "result": "no practical influence"}
    ]},
    {"smiles": "Cc1nn(C)c2[nH]c(=O)c3c(c12)CCCC3", "note": "[Example 18, 6,7,8,9-Tetrahydro-1,3-dimethyl-3H-pyrazolo[3,4-c]isoquinoline-5(4H)-one]", "values": [
      {"measurement": "influence on the CR and the UR (in words)", "setting": "[3]", "result": "no practical influence"}
    ]},
    {"smiles": "CCCCOc1nc2c(c(C)nn2C)c2c1CCCC2", "note": "[Example 27]", "values": [
      {"measurement": "influence on the CR and the UR (in words)", "setting": "[3]", "result": "no practical influence"}
    ]},
    {"smiles": "Cc1nn(C)c2nc(OCCO)c3c(c12)CCCC3", "note": "[Example 28]", "values": [
      {"measurement": "influence on the CR and the UR (in words)", "setting": "[3]", "result": "no practical influence"}
    ]},
    {"smiles": "CCN(CC)CCn1c(=O)c2c(c3c(C)nn(C)c31)CCC2", "note": "[Example 39]", "values": [
      {"measurement": "analgesic activity in these tests (in words)", "setting": "[4]", "result": "good activity"}
    ]},
    {"smiles": "Cc1nn(C)c2c1c1c(c(=O)n2CCN2CCN(c3ccccc3)CC2)CCC1", "note": "[Example 40]", "values": [
      {"measurement": "influence on the CR and the UR (in words)", "setting": "[3]", "result": "no practical influence"}
    ]},
    {"smiles": "Cc1nn(C)c2c1c1c(c(=O)n2CCN2CCN(C)CC2)CCCC1", "note": "[Example 45]", "values": [
      {"measurement": "influence on the CR and the UR (in words)", "setting": "[3]", "result": "no practical influence"}
    ]},
    {"smiles": "Cc1nn(C)c2ncc3c(c12)CCC3", "note": "[Example 55]", "values": [
      {"measurement": "analgesic activity in these tests (in words)", "setting": "[4]", "result": "good activity"}
    ]},
    {"smiles": "Cc1nn(C)c2ncc3c(c12)CCCC3", "note": "[Example 57]", "values": [
      {"measurement": "LD50", "setting": "[5]", "result": 650, "unit": "mg/kg"},
      {"measurement": "percent of inhibition of writhings", "setting": "[1]; 10 mg/kg per os", "result": 25, "unit": "%"},
      {"measurement": "percent of inhibition of writhings", "setting": "[1]; 20 mg/kg per os", "result": 51, "unit": "%"},
      {"measurement": "percent of inhibition of writhings", "setting": "[1]; 50 mg/kg per os", "result": 89, "unit": "%"},
      {"measurement": "potency ratio co. 57:ASA", "setting": "[1]; writhing test, per os", "result": 6.6},
      {"measurement": "percent of increase of the pain threshold", "setting": "[2]; 20 mg/kg per os", "result": 78, "unit": "%"},
      {"measurement": "percent of increase of the pain threshold", "setting": "[2]; 50 mg/kg per os", "result": 115, "unit": "%"},
      {"measurement": "percent of increase of the pain threshold", "setting": "[2]; 100 mg/kg per os", "result": 172, "unit": "%"},
      {"measurement": "potency ratio co. 57:ASA", "setting": "[2]; pain relief test, per os", "result": 2.6},
      {"measurement": "LD50", "setting": "[6]", "result": "> 1000", "unit": "mg/kg"},
      {"measurement": "analgesic activity in these tests (in words)", "setting": "[4]", "result": "highly effective"}
    ]}
  ]
}
